One assay deals with WT HL-60 cells. Briefly: Proliferation ratio during macrophage differentiation. The assay is classed as cell-based, human. As to conditions: Figure 6e. On the procedure:
(§1) Cells were pretreated with vehicle or WEL028 (100 or 1000 nM, 1 h) prior to induction of differentiation towards monocytes/macrophages with PMA (16 nM, 48 h). Medium was refreshed with growth medium containing WEL028 and PMA after 24 h to maintain full FES inhibition. […] Threshold for CD11b-positive cells was determined using isotype control antibody. […] Kinases with native cysteine at DFG-1 position are shown in bold. All data represent means ± SEM.
(§2) Cell lines were purchased at ATCC (HEK293T: ATCC® CRL-11268™, U2OS: ATCC® HTB-96™, HL-60: ATCC® CCL-240™) and were tested on regular basis for mycoplasma contamination. Cultures were discarded after 2–3 months of use. HEK293T (human embryonic kidney) and U2OS (human osteosarcoma) cells were cultured at 37 °C under 7% CO2 in DMEM containing phenol red, stable glutamine, 10% (v/v) high iron newborn calf serum (Seradigm), penicillin and streptomycin (200 μg/mL each; Duchefa). Medium was refreshed every 2–3 days and cells were passaged two times a week at 80–90% confluence. HL-60 (human promyeloblast) cells were cultured at 37 °C under 5% CO2 in HEPES-supplemented RPMI containing phenol red, stable glutamine, 10% (v/v) fetal calf serum (Biowest), penicillin and streptomycin (200 μg/mL each), unless stated otherwise. Cell density was maintained between 0.2 × 10^6 and 2.0 × 10^6 cells/mL. Cell viability was assessed by Trypan Blue exclusion and quantification using a TC20™ Automated Cell Counter (Bio-Rad).

The subject of the next assay is FES^S700C HL-60 cells. The assay is described as above. Type of assay: cell-based, human. As to conditions: for Proliferation ratio: Figure 6e, S700C. As for the experimental part:
as §1, §2

The target in a further assay is T1, MARK4 (Homo sapiens, UniProt Q96L34).
T1 sequence (Q96L34 1-752): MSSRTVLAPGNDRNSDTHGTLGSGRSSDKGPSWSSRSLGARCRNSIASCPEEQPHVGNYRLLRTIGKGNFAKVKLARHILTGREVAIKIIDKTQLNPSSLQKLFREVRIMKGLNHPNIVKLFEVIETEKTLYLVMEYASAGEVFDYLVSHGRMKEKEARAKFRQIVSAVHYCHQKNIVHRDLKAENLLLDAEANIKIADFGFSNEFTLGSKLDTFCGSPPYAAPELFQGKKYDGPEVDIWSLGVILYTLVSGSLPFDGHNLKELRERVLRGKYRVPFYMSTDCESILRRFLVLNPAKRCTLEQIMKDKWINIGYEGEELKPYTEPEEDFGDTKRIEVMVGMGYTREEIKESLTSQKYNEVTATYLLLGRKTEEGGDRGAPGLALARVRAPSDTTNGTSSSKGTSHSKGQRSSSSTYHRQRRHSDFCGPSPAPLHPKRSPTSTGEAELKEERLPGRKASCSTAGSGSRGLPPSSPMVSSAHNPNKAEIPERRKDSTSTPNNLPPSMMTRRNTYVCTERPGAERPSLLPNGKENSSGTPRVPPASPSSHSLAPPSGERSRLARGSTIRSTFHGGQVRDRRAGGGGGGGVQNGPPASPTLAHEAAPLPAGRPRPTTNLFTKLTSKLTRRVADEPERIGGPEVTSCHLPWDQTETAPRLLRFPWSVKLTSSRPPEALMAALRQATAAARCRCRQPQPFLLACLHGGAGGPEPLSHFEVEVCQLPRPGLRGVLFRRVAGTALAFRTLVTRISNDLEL
Briefly: SelectScreen kinase assay.

A further assay has as its target AURKB (Aurora B) (Homo sapiens, UniProt Q96GD4). Briefly: SelectScreen kinase assay.
For assay [1], the target named is T2, MAP3K7/MAP3K7IP1 (TAK1-TAB1) (Homo sapiens, UniProt O43318).
T2 sequence (O43318 1-303 limits assumed): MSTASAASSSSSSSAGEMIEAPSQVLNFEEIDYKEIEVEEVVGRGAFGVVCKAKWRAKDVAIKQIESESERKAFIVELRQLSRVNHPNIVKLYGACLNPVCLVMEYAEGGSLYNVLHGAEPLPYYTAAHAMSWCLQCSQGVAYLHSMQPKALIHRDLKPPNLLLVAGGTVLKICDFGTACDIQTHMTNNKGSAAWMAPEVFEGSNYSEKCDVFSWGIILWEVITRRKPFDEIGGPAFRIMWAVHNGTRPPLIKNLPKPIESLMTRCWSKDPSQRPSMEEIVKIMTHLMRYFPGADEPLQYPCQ
T2 sequence (Q15750 437-504 partner limits assumed): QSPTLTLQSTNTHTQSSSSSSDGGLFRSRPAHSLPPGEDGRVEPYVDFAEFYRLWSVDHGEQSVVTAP
Briefly: SelectScreen kinase assay.
Experimental: (§3) Selectivity profiling assays were performed by the Invitrogen SelectScreen™ Services. […] The concentration of ATP was selected to be equal to the KM, unless indicated otherwise.

The target of another assay is T3, FES^WT (Homo sapiens, UniProt P07332).
T3 construct: human FES cDNA encoding residues 448–822 or human FER cDNA encoding residues 448–820 was amplified by PCR; made in house; host or cells: E. coli BL21(DE3), co-expressing YopH phosphatase
T3 sequence (P07332 448-822): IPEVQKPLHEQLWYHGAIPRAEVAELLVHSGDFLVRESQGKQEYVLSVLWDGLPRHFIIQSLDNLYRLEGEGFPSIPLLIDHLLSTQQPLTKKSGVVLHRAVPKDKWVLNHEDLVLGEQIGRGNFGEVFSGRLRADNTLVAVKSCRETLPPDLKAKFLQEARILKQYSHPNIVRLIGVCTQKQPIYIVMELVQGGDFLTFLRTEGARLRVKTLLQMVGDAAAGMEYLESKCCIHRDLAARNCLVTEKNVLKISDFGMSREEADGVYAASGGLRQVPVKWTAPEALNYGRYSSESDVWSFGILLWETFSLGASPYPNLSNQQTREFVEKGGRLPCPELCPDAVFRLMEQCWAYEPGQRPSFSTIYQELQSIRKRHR
The assay is described as follows: In vitro TR-FRET kinase assay. Type of assay: biochemical. As to conditions: TR-FRET assay, 5 µM ATP; n = 3; read-out: pIC50 FES^WT (converted). As for the experimental part: All measurements were performed in triplicate.
Background: TR-FRET usually uses a lanthanide donor and a delayed reading to cut background.

The mark [2] stands for this setting: 1 h, 1 μM WEL028, 1 h preincubation.

Molecules are shown by their SMILES. “And” between values parts separate entries of the source, which are not always exact repeats. Equal entries are not always repeated. Where two headings read alike, the source gives them in different places.

AURKB (Aurora B), sequence (Q96GD4 whole entry): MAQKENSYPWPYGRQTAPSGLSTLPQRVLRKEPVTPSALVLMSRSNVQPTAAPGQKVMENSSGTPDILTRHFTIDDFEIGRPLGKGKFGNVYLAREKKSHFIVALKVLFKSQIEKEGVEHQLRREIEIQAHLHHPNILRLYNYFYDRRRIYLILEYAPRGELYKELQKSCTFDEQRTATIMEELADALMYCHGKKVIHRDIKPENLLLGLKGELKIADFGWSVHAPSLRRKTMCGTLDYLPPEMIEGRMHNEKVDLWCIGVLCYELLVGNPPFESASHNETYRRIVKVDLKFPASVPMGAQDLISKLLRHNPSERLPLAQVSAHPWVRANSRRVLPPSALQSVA
Experimental for AURKB (Aurora B): as §3
Experimental for MARK4: as §3

In the case of `C#CCOc1ccc(Nc2ncc(Cl)c(Nc3ccccc3NC(=O)C=C)n2)c(OC)c1` [Compound 6], the Proliferation ratio is 1.995 and 1.877 and 1.706 in the assay with WT HL-60 cells (WEL028 100 nM); 2.7225 and 2.805 and 3.0525 with WT HL-60 cells (WEL028 1 µM); 1.219 and 1.226 and 1.503 with FES^S700C HL-60 cells (WEL028 100 nM); 2.372 and 2.5075 and 3.084 in the assay on FES^S700C HL-60 cells (WEL028 1 µM). Further, the Cell proliferation entry in the assay on FES^S700C HL-60 cells (100 nM WEL028 vs vehicle) is reported as “decreased to identical levels”; in the assay on FES^S700C HL-60 cells (1 µM WEL028), “less pronounced decrease in proliferation”. Also, the “Inhibition (%)” value on MARK4 (1 μM WEL028, 1 h preincubation) was determined as 8%. Moreover, the Inhibition – broadly, the relative decrease from the control value, in per cent – at 1 µM (%) at MARK4 (MARK4, 1 µM, ZLYTE, ATP Km app, listed as WEL028, 1 µM) is 6%; on AURKB (Aurora B) (AURKB (Aurora B), 1 µM, ZLYTE, ATP Km app, listed as WEL028, 1 µM), 32%; in assay [1] (MAP3K7/MAP3K7IP1 (TAK1-TAB1), 1 µM, LanthaScreen Binding, listed as WEL028, 1 µM), 15%. In addition, the inhibition at 1 µM at MARK4 (read-out: Inhibition at 1 µM (%), MARK4, 1 µM, ZLYTE, ATP Km app) was found to be 9%; on AURKB (Aurora B) (setting [2]), 37%; at AURKB (Aurora B) (read-out: Inhibition at 1 µM (%), AURKB (Aurora B), 1 µM, ZLYTE, ATP Km app) it was 41%; in assay [1] (setting [2]), 13%; in assay [1] (read-out: Inhibition at 1 µM (%), MAP3K7/MAP3K7IP1 (TAK1-TAB1), 1 µM, LanthaScreen Binding), 11%. For the same molecule, the IC50 on FES^WT was greater than 3 µM.

Source of the values: publication PMC7316778 (Nature Communications, 2020).
